Data set [1] has as its system HCT-116. In words: Cytotoxicity against human HCT116 cells assessed as reduction in cell viability incubated for 24 hrs by CCK8 assay. Conditions: HCT-116, 24 h. The format is functional, cell-based. A general note: Tetrazolium dyes change colour on reduction, which living cells bring about.
Data set [2] concerns SW480. As to the kind of experiment: Cytotoxicity against human SW480 cells assessed as reduction in cell viability incubated for 24 hrs by CCK8 assay. The format is functional, cell-based. Conditions: SW480, 24 h.
Data set [3] has as its system U-87 MG. As to the kind of experiment: Cytotoxicity against human U87 cells assessed as reduction in cell viability incubated for 24 hrs by CCK8 assay. The format is functional, cell-based, U-87MG ATCC.
Data set [4] deals with T98G. In words: Cytotoxicity against human T98G cells assessed as reduction in cell viability incubated for 24 hrs by CCK8 assay. The format is functional, cell-based.
In data set [5] the test system is T98G. In words: Induction of apoptosis in human T98G cells assessed as viable cells level incubated for 48 hrs by Annexin V-FITC and PI double staining based flow cytometry (reference value: 91.3%). The format is functional. In general terms: A flow cytometer gives signals particle by particle.
The test system of data set [6] is T98G. As to the kind of experiment: Induction of apoptosis in human T98G cells assessed as early apoptotic cells level incubated for 48 hrs by Annexin V-FITC and PI double staining based flow cytometry (reference value: 1.79%). The format is functional.
Data set [7] concerns T98G. As to the kind of experiment: Induction of apoptosis in human T98G cells assessed as late apoptotic cells level incubated for 48 hrs by Annexin V-FITC and PI double staining based flow cytometry (reference value: 5.35%). The format is functional.
The subject of data set [8] is T98G. In words: Induction of apoptosis in human T98G cells assessed as necrotic cells level incubated for 48 hrs by Annexin V-FITC and PI double staining based flow cytometry (reference value: 1.66%). Format: functional.
Data set [9] relates to SW480. As to the kind of experiment: Induction of apoptosis in human SW480 cells assessed as viable cells level incubated for 48 hrs by Annexin V-FITC and PI double staining based flow cytometry (reference value: 93.2%). Format: functional.
Data set [10] concerns SW480. In words: Induction of apoptosis in human SW480 cells assessed as early apoptotic cells level incubated for 48 hrs by Annexin V-FITC and PI double staining based flow cytometry (reference value: 2.75%). The format is functional.
Data set [11] relates to SW480. As to the kind of experiment: Induction of apoptosis in human SW480 cells assessed as late apoptotic cells level incubated for 48 hrs by Annexin V-FITC and PI double staining based flow cytometry (reference value: 2.09%). The format is functional.
Data set [12] relates to SW480. In words: Induction of apoptosis in human SW480 cells assessed as necrotic cells level incubated for 48 hrs by Annexin V-FITC and PI double staining based flow cytometry (reference value: 1.17%). The format is functional.
For data set [13], the system named is T98G. In words: Induction of apoptosis in human T98G cells assessed as Bax protein level incubated for 48 hrs by Western blot analysis relative to untreated control. The format is functional. In general terms: Immunoblotting shows a protein as a band on a membrane.
Data set [14] relates to T98G. As to the kind of experiment: Induction of apoptosis in human T98G cells assessed as Bcl-xL protein level incubated for 48 hrs by Western blot analysis relative to untreated control. The format is functional.
Data set [15] deals with T98G. As to the kind of experiment: Effect on GAPDH protein expression human T98G cells assessed as GAPDH protein level incubated for 48 hrs by Western blot analysis relative to untreated control. The format is ADME, cell-based.
Data set [16] has as its system SW480. As to the kind of experiment: Induction of apoptosis in human SW480 cells assessed as Bax protein level incubated for 48 hrs by Western blot analysis relative to untreated control. The format is functional.
Data set [17] concerns SW480. As to the kind of experiment: Induction of apoptosis in human SW480 cells assessed as Bcl-xL protein level incubated for 48 hrs by Western blot analysis relative to untreated control. The format is functional.
In data set [18] the test system is SW480. In words: Effect on GAPDH protein expression human SW480 cells assessed as GAPDH protein level incubated for 48 hrs by Western blot analysis relative to untreated control. The settings on record: sw480, 48 h. The format is ADME, cell-based.

A value given as a limit tells only on which side of the number the result lay.

What is called IC50 is the concentration at which inhibition is half-maximal.

On to `O=c1c(-c2c(O)cc3c(c2O)C[C@H](O)[C@H](c2ccc(O)c(O)c2)O3)c(-c2ccc(O)cc2)oc2cc(O)cc(O)c12`, for which the IC50 in [1] came out at 87.6 µM; in data set [2], 71 µM; in data set [3], 88.4 µM; in data set [4], 83.5 µM. For the same molecule, the Activity in data set [5] is 79.4%; in [6] it was 4.11%; in data set [7], 15%; in data set [8], 1.55%; in data set [9] it was 64.8%; in data set [10] it was 18.5%. Besides, the Activity in data set [11] stood at 13.7%; in data set [12] it was 2.87%. The “fold change (FC)” value in data set [13] came out at 4.1; in data set [14], 0.4; in [15] it was 1; in data set [16] it was 1.9; in data set [17], 0.6; in data set [18] it was 1.

With `CC(=O)O[C@H]1C(=O)[C@@]2(C)[C@H]([C@H](OC(=O)c3ccccc3)[C@]3(O)C[C@H](OC(=O)[C@H](O)[C@@H](NC(=O)c4ccccc4)c4ccccc4)C(C)=C1C3(C)C)[C@]1(OC(C)=O)CO[C@@H]1C[C@@H]2O` [PACLITAXEL], the IC50 in data set [2] is 0.19 µM; in [3], 4.67 µM; in [4], 0.74 µM. The Activity is reported as 25.6% in data set [5]; 15% in [6]; 56.2% in data set [7]; 3.23% in data set [8]; 33.6% in data set [9]; 45.6% in data set [10]. Also, the Activity in data set [11] is on record as 14.7%; in [12], 1.13%.

For the molecule `O=c1ccc2ccc(Oc3cc4ccc(O[C@@H]5O[C@H](CO)[C@@H](O)[C@H](O)[C@H]5O)c(-c5c(O)ccc6ccc(=O)oc56)c4oc3=O)cc2o1`, the IC50 in [1], in [2], in data set [3] and in data set [4] was above 100 µM throughout.

As to `O=c1c(-c2c(O)cc3c(c2O)C[C@@H](O)[C@H](c2ccc(O)cc2)O3)c(-c2ccc(O)cc2)oc2cc(O)cc(O)c12`, the IC50 came to 24.4 µM in [1], 17.9 µM in [2], 35.7 µM in [3] and 30.6 µM in data set [4]. Besides, the Activity in data set [5] amounted to 62.9%; in data set [6], 10.3%; in data set [7], 25.4%; in data set [8], 1.36%; in [9] it was 51.6%; in data set [10] it was 34.2%. Moreover, the Activity is 12.9% in [11] and 1.31% in data set [12]. The “fold change (FC)” value in [13] was 3.4; in [14], 0.7; in data set [15], 1; in data set [16], 2.3; in data set [17] it was 0.8; in [18] it was 0.9.

In the case of `O=c1c(-c2c(O)cc3c(c2O)C[C@@H](O)[C@@H](c2ccc(O)c(O)c2)O3)c(-c2ccc(O)cc2)oc2cc(O)cc(O)c12`, the 50% inhibitory concentration (IC50) was 28.7 µM in [1], 30.4 µM in [2], 32.5 µM in [3] and 27.3 µM in [4]. Also, the Activity in data set [5] is on record as 63.9%; in data set [6], 17.8%; in [7], 17.2%; in data set [8], 1.15%; in [9], 68.1%; in data set [10] it was 21.7%. Further, the Activity in data set [11] amounted to 9.3%; in data set [12], 0.909%. Also, the “fold change (FC)” value came to 3.8 in [13]; 0.7 in data set [14]; 0.9 in data set [15]; 2.4 in data set [16]; 0.7 in data set [17]; 1 in [18].

Source of the values: ChEMBL document CHEMBL4184237, “Cytotoxic oligophenols from the rhizome of Wikstroemia indica” (Bioorg Med Chem Lett, 2018).
